How the values were obtained:
[1] = target: GLP (G9a-like protein, EHMT1) (Homo sapiens, UniProt Q9H9B1); conditions: compared with G9a
[2] = target: SETD2 (Homo sapiens, UniProt Q9BYW2); conditions: at the highest concentrations surveyed (50 μM)
[3] = target: EZH2 (Homo sapiens, UniProt Q15910); conditions: at the highest concentrations surveyed (50 μM)
[4] = test system: all other methyltransferases in the panel; conditions: panel other than G9a, GLP, SETD2, EZH2
[5] = target: G9a (Homo sapiens, UniProt Q96KQ7); conditions: SPA assay
[6] = Henderson–Hasselbalch equation, assay conditions pH 8

GLP (G9a-like protein, EHMT1), sequence (Q9H9B1 whole entry): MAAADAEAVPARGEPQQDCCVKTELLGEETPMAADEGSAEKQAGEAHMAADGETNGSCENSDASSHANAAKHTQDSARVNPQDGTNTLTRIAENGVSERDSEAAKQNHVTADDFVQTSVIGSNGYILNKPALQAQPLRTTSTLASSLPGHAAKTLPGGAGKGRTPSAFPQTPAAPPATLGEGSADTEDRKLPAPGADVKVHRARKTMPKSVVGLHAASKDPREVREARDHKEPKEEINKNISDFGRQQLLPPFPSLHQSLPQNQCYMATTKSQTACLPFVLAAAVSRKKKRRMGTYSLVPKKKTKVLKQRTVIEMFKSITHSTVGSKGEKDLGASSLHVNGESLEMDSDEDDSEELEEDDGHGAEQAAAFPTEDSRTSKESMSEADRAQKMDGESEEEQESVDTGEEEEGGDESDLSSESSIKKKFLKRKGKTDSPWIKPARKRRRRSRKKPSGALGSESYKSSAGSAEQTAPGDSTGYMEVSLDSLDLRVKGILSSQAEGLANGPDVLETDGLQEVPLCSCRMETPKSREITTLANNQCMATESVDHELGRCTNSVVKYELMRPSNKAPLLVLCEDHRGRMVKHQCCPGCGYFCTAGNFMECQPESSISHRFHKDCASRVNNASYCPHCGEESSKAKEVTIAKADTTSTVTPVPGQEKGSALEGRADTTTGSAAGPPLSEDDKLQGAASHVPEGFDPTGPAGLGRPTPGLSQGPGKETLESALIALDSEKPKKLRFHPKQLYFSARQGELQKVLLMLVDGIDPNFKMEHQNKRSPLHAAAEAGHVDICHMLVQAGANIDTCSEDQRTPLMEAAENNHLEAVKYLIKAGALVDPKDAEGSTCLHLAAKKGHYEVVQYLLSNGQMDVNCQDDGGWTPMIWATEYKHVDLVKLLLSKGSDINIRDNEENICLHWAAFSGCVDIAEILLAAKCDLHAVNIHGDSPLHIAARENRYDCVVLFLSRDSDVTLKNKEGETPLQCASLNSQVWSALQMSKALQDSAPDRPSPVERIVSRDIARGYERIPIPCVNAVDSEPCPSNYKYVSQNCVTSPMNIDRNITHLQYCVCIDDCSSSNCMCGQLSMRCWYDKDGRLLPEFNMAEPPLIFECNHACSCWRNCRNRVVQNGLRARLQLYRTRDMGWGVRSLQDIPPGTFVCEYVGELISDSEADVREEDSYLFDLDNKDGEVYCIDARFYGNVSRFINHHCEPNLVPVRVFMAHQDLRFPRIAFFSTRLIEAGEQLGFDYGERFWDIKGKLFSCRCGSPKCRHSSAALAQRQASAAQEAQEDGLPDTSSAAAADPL
SETD2, sequence (Q9BYW2 whole entry, species assumed): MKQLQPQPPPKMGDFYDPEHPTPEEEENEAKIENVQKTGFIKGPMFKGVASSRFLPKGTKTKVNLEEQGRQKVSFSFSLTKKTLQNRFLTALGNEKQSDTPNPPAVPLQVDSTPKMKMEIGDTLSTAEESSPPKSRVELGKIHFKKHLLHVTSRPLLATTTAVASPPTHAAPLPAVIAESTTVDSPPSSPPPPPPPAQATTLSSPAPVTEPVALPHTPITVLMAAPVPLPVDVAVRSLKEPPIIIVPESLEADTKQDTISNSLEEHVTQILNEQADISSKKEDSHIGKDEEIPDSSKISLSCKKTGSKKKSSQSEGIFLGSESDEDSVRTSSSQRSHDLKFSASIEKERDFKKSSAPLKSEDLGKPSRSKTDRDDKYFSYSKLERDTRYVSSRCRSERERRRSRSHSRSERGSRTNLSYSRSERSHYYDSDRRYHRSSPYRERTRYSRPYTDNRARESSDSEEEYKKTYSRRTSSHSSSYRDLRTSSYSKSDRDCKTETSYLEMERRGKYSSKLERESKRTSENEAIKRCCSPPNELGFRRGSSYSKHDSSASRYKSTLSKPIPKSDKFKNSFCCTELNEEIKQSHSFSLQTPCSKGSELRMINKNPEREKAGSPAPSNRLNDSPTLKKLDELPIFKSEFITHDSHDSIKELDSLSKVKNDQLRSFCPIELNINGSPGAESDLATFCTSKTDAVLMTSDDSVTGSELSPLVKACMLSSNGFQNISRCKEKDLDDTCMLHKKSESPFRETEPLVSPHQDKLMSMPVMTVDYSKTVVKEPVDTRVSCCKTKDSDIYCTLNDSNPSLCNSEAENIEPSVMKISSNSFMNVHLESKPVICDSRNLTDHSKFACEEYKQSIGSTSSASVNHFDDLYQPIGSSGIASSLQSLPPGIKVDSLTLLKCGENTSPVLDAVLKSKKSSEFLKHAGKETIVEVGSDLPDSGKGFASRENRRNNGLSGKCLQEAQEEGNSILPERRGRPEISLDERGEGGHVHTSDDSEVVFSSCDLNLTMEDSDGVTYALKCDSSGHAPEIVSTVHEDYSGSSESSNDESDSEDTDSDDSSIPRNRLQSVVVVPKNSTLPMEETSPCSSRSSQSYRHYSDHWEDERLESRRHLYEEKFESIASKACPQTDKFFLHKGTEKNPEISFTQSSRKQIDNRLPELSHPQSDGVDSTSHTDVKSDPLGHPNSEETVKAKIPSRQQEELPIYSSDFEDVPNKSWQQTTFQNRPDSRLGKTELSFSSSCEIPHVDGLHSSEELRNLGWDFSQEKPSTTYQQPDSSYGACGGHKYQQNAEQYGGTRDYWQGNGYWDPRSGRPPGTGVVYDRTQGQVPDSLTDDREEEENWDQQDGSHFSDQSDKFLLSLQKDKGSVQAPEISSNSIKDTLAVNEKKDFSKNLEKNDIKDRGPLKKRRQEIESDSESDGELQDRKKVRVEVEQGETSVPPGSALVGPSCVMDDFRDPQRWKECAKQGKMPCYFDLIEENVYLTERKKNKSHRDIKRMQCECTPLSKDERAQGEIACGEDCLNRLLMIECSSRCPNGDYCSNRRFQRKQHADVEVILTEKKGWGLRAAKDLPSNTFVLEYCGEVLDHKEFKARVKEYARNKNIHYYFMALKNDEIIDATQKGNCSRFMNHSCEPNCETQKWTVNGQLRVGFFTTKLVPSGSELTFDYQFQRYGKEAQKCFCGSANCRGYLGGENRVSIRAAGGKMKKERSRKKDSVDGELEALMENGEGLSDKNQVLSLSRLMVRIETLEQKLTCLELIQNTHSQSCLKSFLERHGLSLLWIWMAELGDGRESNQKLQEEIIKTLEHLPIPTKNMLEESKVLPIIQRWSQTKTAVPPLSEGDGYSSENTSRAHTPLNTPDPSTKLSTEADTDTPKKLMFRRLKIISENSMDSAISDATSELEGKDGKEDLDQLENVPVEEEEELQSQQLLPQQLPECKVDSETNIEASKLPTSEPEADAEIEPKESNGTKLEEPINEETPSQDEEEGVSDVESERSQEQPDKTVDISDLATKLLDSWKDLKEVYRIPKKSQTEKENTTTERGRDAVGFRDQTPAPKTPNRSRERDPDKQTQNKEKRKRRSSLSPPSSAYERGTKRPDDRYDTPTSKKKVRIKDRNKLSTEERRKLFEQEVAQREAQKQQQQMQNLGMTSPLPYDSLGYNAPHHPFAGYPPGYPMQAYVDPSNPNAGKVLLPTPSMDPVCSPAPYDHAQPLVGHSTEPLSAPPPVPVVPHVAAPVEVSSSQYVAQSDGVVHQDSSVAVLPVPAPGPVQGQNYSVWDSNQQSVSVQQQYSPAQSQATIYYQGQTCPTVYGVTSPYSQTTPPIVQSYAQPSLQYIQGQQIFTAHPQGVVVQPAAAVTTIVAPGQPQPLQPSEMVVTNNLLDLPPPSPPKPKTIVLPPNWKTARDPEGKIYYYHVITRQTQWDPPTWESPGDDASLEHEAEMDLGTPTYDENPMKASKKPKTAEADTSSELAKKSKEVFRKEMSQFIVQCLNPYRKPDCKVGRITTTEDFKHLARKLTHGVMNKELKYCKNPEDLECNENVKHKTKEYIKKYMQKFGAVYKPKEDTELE
G9a, sequence (Q96KQ7 whole entry): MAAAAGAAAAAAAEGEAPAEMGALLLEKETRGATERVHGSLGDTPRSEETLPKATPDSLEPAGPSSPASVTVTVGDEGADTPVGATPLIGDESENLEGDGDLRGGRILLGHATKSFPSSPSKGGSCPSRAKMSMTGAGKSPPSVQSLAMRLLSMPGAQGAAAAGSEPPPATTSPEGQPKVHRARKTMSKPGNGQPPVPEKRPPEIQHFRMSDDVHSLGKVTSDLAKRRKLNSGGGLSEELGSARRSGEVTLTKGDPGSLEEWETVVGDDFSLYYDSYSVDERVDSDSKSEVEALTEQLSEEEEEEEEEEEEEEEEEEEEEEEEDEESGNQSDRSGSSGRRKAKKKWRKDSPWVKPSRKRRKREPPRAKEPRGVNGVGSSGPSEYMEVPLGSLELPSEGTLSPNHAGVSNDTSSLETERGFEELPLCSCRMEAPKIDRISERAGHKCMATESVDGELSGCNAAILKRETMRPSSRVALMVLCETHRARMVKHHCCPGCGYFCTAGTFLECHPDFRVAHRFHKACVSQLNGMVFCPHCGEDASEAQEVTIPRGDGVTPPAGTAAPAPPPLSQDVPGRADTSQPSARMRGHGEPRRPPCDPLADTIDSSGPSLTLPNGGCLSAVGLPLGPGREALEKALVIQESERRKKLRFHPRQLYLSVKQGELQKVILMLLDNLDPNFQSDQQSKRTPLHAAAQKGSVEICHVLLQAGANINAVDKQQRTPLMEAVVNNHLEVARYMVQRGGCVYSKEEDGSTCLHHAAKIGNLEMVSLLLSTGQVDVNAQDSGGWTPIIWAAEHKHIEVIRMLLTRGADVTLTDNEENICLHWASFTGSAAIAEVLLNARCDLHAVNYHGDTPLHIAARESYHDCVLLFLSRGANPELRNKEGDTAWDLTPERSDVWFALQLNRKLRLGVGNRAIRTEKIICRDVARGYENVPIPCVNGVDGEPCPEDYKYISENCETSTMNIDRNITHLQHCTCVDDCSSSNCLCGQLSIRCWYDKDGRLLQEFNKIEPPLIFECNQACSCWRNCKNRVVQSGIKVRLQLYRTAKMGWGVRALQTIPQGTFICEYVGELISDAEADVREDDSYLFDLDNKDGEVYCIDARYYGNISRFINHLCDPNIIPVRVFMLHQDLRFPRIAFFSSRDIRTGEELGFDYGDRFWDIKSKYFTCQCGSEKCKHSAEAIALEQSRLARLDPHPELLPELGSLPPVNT

Row | Structure (SMILES) | activity against GLP (in words) [1] | activity against SETD2 (in words) [2] | activity against EZH2 (in words) [3] | activity against all other methyltransferases in the panel (in words) [4] | G9a inhibitory activity (in words) [5] | N-1 protonated form [6]
1 | COc1cc2nc(N3CCN(C)CC3)cc(NC3CCN(Cc4ccccc4)CC3)c2cc1OC [Compound 42] | equipotent against G9a and GLP | moderate inhibitory activity | moderate inhibitory activity | inactive | significant activity | –
2 | COc1cc2nc(N3CCCN(C)CC3)cc(NC3CCN(Cc4ccccc4)CC3)c2cc1OC [Compound 41] | equipotent against G9a and GLP | moderate inhibitory activity | moderate inhibitory activity | inactive | significant activity | 96.9%
3 | COc1cc2nc(N3CCCN(C)CC3)nc(NC3CCN(Cc4ccccc4)CC3)c2cc1OC [Compound 1, BIX-01294, reference compound] | dual G9a/GLP activity | – | – | – | – | 8.0%

Reference: article PMC4349132 (Medchemcomm, 2014)
